From patent US20090253692A1, “CRYSTALLINE FORM OF N-[[4-FLUORO-2-(5-METHYL-1H-1,2,4-TRIAZOL-1-YL)PHENYL]METHYL]-4,6,7,9-TETRAHYDRO-3-HYDROXY-9,9-DIMETHYL-4-OXO-PYRIMIDO[2,1-C][1,4]OXAZINE-2-CARBOXAMIDE, SODIUM SALT MONOHYDRATE” (Bristol-Myers Squibb Company, priority 2008, published 2009)
“Also recorded” adds a separate entry of the source. Read-outs that look alike come from different tables or passages of the source.

What was measured:
[1] = Dust hazard analysis: explosion severity (twenty liter sphere testing), Kst and St classification; type: physicochemical; settings: for Explosion Severity (Max Pressure) / Explosion Severity (Max rate): dust explosion risk; for St Classification: general classification designation for explosible dusts
From the text: (§1) “μm” means micrometer. “gm” means gram. “cc” means cubic centimeter. “gm/cc” means gram per cubic centimeter. “Kst” is the deflagration index of a dust expressed in bar-meter per second. “bar-m/s” means bar meter per sec. “bar/s” means bar per second. “mJ” means millijoules. “St” is the geneal classification designation for explosible dusts: “St-2” is classified as a strong explosion designation and has Kst>200 bar-m/sec; “St-1” is not classified as a strong explosion and has Kst<200 bar-m/sec.
(§2) Twenty liter sphere testing (see Proust, C.; Accorsi, A.; Dupont, L. Journal of Loss prevention in the Process Industries, vol. 20, 2007.) places the sample in the St-2 (strong explosion) class with a Kst value of 238 bar-m/s.
(§3) Therefore, twenty liter sphere testing was not required.

[2] = Dust hazard analysis: ignition sensitivity of dust cloud; type: physicochemical; settings: for Susceptibility to ignition as a dust cloud: result in words
From the text: as §1, §2, §3

[3] = Bulk and true densities; type: physicochemical
[4] = molecular target: HIV integrase (Human immunodeficiency virus type 1 group M subtype B, UniProt P04585); settings: result in words, see U.S. Pat. No. 7,176,196, sodium salt monohydrate, cited from earlier work
[5] = Particle size analysis using an Aerosizer instrument; type: physicochemical
[6] = Dust hazard analysis: charge decay time estimation; type: physicochemical
[7] = Moisture content by weight loss in vacuum oven; type: physicochemical; settings: 5 gm in a vacuum oven at 60° C. for six hours
Method: Particle analysis. […] The sample was checked for moisture content by placing 5 gm in a vacuum oven at 60° C. for six hours and checking weight loss. The free acid lost 0.22% of its initial weight. […] The sample was checked for moisture content by placing 5 gm in a vacuum oven at 60° C. for six hours and checking weight loss. The salt monohydrate lost 0.18% of its initial weight.

Row | SMILES | Explosion Severity (Max Pressure) [1] | Explosion Severity (Max rate) [1] | St Classification [1] | Explosion characteristics ([1]; result in words) | Minimum Ignition Energy ([2]; dust explosion risk) | Minimum Ignition Temperature ([2]; dust explosion risk) | Susceptibility to ignition as a dust cloud [2] | Bulk density [3] | True density [3] | Binding to and antagonism / inhibition of HIV integrase ([4]; listed as Compound I) | Binding to and antagonism / inhibition of HIV integrase [4] | Particle size, 95% of sample below [5] | Particle size, mean value [5] | Charge Decay Time Estimation [6] | Moisture content: loss of initial weight [7] | Kst value ([1]; deflagration index of a dust) | Kst value ([1]; twenty liter sphere testing)
1 | Cc1ncnn1-c1cc(F)ccc1CNC(=O)c1nc2n(c(=O)c1[O-])CCOC2(C)C.[Na+] [Compound (I), N-[[4-fluoro-2-(5-methyl-1H-1,2,4-triazol-1-yl)phenyl]methyl]-4,6,7,9-tetrahydro-3-hydroxy-9,9-dimethyl-4-oxo-pyrimido[2,1-c][1,4]oxazine-2-carboxamide, sodium salt monohydrate] | 1.5 bar | 154 bar/s | St-1 (“St-1” is not classified as a strong explosion and has Kst<200 bar-m/sec) | weak to moderate explosion characteristics | >500 mJ | >600 °C | low susceptibility to ignition as a dust cloud | 0.42 gm/cc | 1.53 gm/cc | demonstrated inhibition of HIV integrase | potently bind to and act as an antagonist to HIV integrase | < 33.6 μm | 14.8 μm | 33 min | 0.18% | – | –
2 | Cc1ncnn1-c1cc(F)ccc1CNC(=O)c1nc2n(c(=O)c1O)CCOC2(C)C [Free acid] | 8.2 bar | 878 bar/s | St-2 (“St-2” is classified as a strong explosion designation and has Kst>200 bar-m/sec) | – | – | – | extremely susceptible to igniting as a dust cloud; also recorded: high susceptibility to ignition and risk for explosion | 0.34 gm/cc | 1.40 gm/cc | – | – | < 32.9 μm | 16.3 μm | 330 min | 0.22% | 238 bar · m/s | 238 bar-m/s
